These results are taken from patent US6265433A, “LTA4 hydrolase inhibitors” (G. D. Searle & Company, priority 1999, dated 2001).

For orientation: IC50 means the concentration that gives 50% inhibition.

Assay [1] deals with LTB4 production in calcium ionophore stimulated mouse blood. The experiment in a line: Murine ex vivo LTB4 inhibition, calcium ionophore stimulated mouse blood after oral gavage. The assay is classed as in vivo, mouse (adult male outbred mice). Conditions: 1 h, blood collected 60 minutes after administration, ionophore A23187 20 mcg/ml, read-out: Murine Ex Vivo LTB4 Inhibition, % I LTB4 at 1 hour after administration of 10 mg/kg. The source says:
(§1) One or more of three different assays, (1) an in vitro LTA hydrolase enzyme assay, (2) a human whole blood assay utilizing calcium ionophore stimulation, and (3) a murine ex vivo assay utilizing calcium ionophore stimulation were employed to determine the level of LTA hydrolase inhibitor activity.
Ex Vivo LTB4 and Thromboxane Production by Calcium lonophore Stimulated Mouse Blood for […] Inhibitor Activity
Leukotriene A4 hydrolase inhibitor compounds of the present invention were diluted to a predetermined concentration in phosphate buffered saline containing 2% DMSO and 1% Tween 80. The compounds were administered by oral gavage to adult male outbred mice weighing approximately 20-30 gm at a dose of 10 mg/kg body weight. (Compounds given at a dose of 50 mg/kg body weight are designated in following Table by the symbol, *) Sixty (60) minutes after administration of an LTA4 inhibitor compound of the invention, blood was collected (into heparin-containing tubes) from the retroorbital sinus. […] The mixture was incubated for 10 minutes at 37° C. in a humidified incubator. The reaction was terminated by centrifugation (833 g. 10 minutes at 4° C.). Supernatant were analyzed for LTB4 and thromboxane by commercially available enzyme-linked immunoassays [Caymen Chemical Co., Ann Arbor, Mich.] in accordance with the manufacturer's instructions. The percent inhibition was determined by comparison to animals treated identically except that the solution administered by oral gavage was devoid of inhibitor compound.

Assay [2] relates to LTB4 production in calcium ionophore stimulated human blood. The assay can be described thus: Inhibition of calcium ionophore-induced LTB4 production in human blood (human whole blood assay). Type of assay: cell-based. Conditions: human blood diluted 1:4; 15 minutes preincubation at 37° C.; calcium ionophore 20 mcg/ml, 10 minutes.
Text: as §1
LTB4 and Thromboxane Production by Calcium Ionophore Stimulated Human Blood for LTB4 Hydrolase Inhibitor Activity
One or more concentrations of the leukotriene A4 hydrolase inhibitor compounds being tested were prepared (diluted in DMSO) and 2 μl added and gently mixed with the diluted whole blood. After incubating for 15 minutes at 37° C. in a humidified incubator, calcium ionophore […] (Sigma Chemical Co., St. Louis, Mo.) was added to a final concentration of 20 mcg/ml and the incubation continued under the same conditions for an additional 10 minutes to allow LTB4 formation. The reaction was terminated by centrifugation (833 g, 10 minutes at 4° C.) and supernatant were analyzed for LTB4 and thromboxane by commercially available enzyme-linked immunoassays (Caymen Chemical Co., Ann Arbor, Mich.) according to the manufacturer's instructions. The IC50 of each test compound was determined from the amount of inhibition of LTB4 production as compared to an essentially identical assay in which no inhibitor compound was present.

The target of assay [3] is T1, Recombinant Human LTA4 Hydrolase (Homo sapiens, UniProt P09960).
T1 construct: made in house; host or cells: Spodoptera frugiperda Sf-9 cells (baculovirus)
T1 sequence (P09960 1-611): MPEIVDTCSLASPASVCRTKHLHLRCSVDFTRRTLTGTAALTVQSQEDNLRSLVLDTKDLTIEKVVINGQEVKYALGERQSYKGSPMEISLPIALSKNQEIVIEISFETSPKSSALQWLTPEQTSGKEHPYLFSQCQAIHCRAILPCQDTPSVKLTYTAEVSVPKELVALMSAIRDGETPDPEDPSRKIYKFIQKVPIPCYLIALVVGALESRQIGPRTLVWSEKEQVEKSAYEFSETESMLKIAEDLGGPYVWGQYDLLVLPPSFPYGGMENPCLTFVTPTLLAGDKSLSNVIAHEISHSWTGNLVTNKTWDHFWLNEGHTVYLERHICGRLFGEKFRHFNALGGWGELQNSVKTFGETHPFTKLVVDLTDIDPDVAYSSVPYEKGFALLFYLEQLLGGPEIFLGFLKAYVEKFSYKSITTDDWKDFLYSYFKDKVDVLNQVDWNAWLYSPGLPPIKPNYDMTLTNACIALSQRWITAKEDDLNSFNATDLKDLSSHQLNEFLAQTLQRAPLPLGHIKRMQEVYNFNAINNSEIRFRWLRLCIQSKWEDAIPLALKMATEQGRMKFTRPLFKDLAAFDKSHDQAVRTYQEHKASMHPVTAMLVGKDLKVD
The assay can be described thus: Recombinant Human LTA Hydrolase Assay (in vitro LTA hydrolase enzyme assay). Type of assay: biochemical. Conditions: 250 ng rhLTA4 hydrolase; 10 minutes preincubation and 10 minutes reaction at room temperature; pH 7.4. How it is done:
as §1
Recombinant Human LTA Hydrolase Assay for LTA Hydrolase Inhibitor Activity
Compounds of the present invention were tested for LTA hydrolase inhibitor activity against recombinant human LTA hydrolase (rhLTAH). […] Briefly, LTA hydrolase encoding DNA was amplified by polymerase chain reaction using a pair of oligonucleotide primers based on the nucleotide sequence from the 5'-end, and the complement of the 3'-end, of the coding region of the LTA hydrolase gene, the nucleotide sequence of which gene is known. […] A λgt11 human placental cDNA library (Clonetech, Palo Alto, Calif.) provided the nucleic acid template.
One or more predetermined amounts of a compound of the invention were incubated in assay buffer (0.1 M potassium phosphate, 5 mg/ml fatty acid free BSA, 10% DMSO, Ph 7.4) for 10 minutes at room temperature with 250 ng of recombinant hLTA4 H to allow binding, if any, between the enzyme and inhibitor. The stock enzyme solution was 1 mg/m. LTA4 hydrolase, 50 Mm Tris, Ph 8.0, 150 Mm NaCl, 2.5 Mm beta-mercaptoethanol, 50% glycerol. The specific activity of the enzyme was about 650 Nmoles/min/mg. LTA4 (i.e., substrate) was prepared from the methyl ester of LTA4 (Biomol, Inc., Plymouth Meeting, Pa.) by treating the methyl ester with 30 molar equivalents of LiOH at room temperature for 18 hours. The LTA4 substrate in its free acid form was kept frozen at -80° C. until needed. LTA4 (free acid) was thawed and diluted in assay buffer (minus DMSO) to a concentration of 350 ng/ml and 25 μl (8ng) of LTA4 substrate was added to the reaction mixture (total volume of reaction mixture=200 μl at time zero. Each reaction was carried out at room temperature for 10 minutes. The reaction was stopped by diluting 25 μl of the reaction mixture with 500 μl of the assay buffer without DMSO. […] was quantified in the diluted sample by a commercially available enzyme-linked immunoassay [Caymen Chemical Col. Ann Arbor, Mich.] using the method recommended in the manufacturer's instructions and compared to the amount of […] produced in a negative control (i.e., essentially identical conditions except without addition of an inhibitor compound). The IC50 was routinely calculated from the data produced.

For a further assay, the system named is LTA4 hydrolase. Conditions: background statement; cited from earlier work.

Consider `c1coc(-c2ccc(Oc3ccc(OCCN4CCCC4)cc3)cc2)n1` [Example 7], for which the inhibition at 10 mg/kg in assay [1] worked out at 93%. The IC50 in assay [2] was found to be 0.55 µM.
For `c1ccc(-c2ccc(Oc3ccc(OCCN4CCCC4)cc3)cc2)cc1` [Example 8], the inhibition at 10 mg/kg in assay [1] is 57%. In addition, the IC50 came to 0.14 µM in assay [2] and 0.0066 µM in assay [3].
On the same counts, the results for `c1cc(Oc2ccc(C3=NCCO3)cc2)ccc1OCCN1CCCC1` [Example 10] are 83%, 0.55 µM and 0.59 µM.
Regarding `CCOC(=O)C1CCN(CCOc2ccc(Oc3ccc(-c4ccccc4)cc3)cc2)CC1` [Example 11], in assay [1], the inhibition at 10 mg/kg came to 90%. The IC50 in assay [2] is 0.72 µM; in assay [3] it was 0.34 µM.
With `O=C(O)C1CCN(CCOc2ccc(Oc3ccc(-c4ccccc4)cc3)cc2)CC1` [Example 12], the inhibition at 10 mg/kg in assay [1] is 87%. In addition, the IC50 in assay [2] stood at 0.22 µM.
As for `COC(=O)CCN(C)CCCOc1ccc(Oc2ccc(-c3ccccc3)cc2)cc1` [Example 13], the inhibition at 10 mg/kg in assay [1] was determined as 63%. Also, the IC50 in assay [2] came out at 0.79 µM; in assay [3], 0.55 µM.
On to `CN(CCCOc1ccc(Oc2ccc(-c3ccccc3)cc2)cc1)CCC(=O)O` [Example 14], for which the inhibition at 10 mg/kg in assay [1] came out at 78%. The IC50 in assay [2] turned out to be 0.19 µM.
As to `CN(CCCOc1ccc(Oc2ccc(-c3nccs3)cc2)cc1)CCC(=O)O` [Example 17], in assay [1], the inhibition at 10 mg/kg was 87%. Also, the IC50 worked out at 0.072 µM in assay [2] and 0.95 µM in assay [3].
Regarding `CN(CCCOc1ccc(Oc2ccc(-c3ncco3)cc2)cc1)CCC(=O)O` [Example 18], the inhibition at 10 mg/kg in assay [1] was 94%. The figures for the IC50 in assay [2] and in assay [3] were 0.19 µM and 0.027 µM, respectively.
Regarding `CCN(CCCOc1ccc(Oc2ccc(-c3ncco3)cc2)cc1)CCC(=O)O` [Example 19], in assay [1], the inhibition at 10 mg/kg is 93%. Moreover, the IC50 came to 0.24 µM in assay [2] and 0.34 µM in assay [3].
On to `CC(C)C[C@H](NC(=O)[C@@H](O)[C@H](N)Cc1ccccc1)C(=O)O` [bestatin], for which the “LTA4 hydrolase inhibitory activity” value in the assay on LTA4 hydrolase is “exhibit LTA4 hydrolase inhibitory activity”.
For `C[C@H](CS)C(=O)N1CCC[C@H]1C(=O)O` [captopril], the “LTA4 hydrolase inhibitory activity” value in the assay with LTA4 hydrolase was “exhibit LTA4 hydrolase inhibitory activity”.
